This note sets out measurements from patent US7592351B2, “Substituted imidazo[1,2-a]pyridine compounds and pharmaceutical preparations containing substituted imidazo[1,2-a]pyridine compounds” (Gruenenthal GmbH, priority 2004, dated 2009).

Structures can show the parent of a compound that is named as a salt.

In experiment [1] the target is T1, cannabinoid receptor 1 (CB1) (Rattus norvegicus, UniProt P20272).
T1 construct: Tissue: rat cerebellum; from tissue; host or cells: rat cerebellum membranes
T1 sequence (P20272 whole entry): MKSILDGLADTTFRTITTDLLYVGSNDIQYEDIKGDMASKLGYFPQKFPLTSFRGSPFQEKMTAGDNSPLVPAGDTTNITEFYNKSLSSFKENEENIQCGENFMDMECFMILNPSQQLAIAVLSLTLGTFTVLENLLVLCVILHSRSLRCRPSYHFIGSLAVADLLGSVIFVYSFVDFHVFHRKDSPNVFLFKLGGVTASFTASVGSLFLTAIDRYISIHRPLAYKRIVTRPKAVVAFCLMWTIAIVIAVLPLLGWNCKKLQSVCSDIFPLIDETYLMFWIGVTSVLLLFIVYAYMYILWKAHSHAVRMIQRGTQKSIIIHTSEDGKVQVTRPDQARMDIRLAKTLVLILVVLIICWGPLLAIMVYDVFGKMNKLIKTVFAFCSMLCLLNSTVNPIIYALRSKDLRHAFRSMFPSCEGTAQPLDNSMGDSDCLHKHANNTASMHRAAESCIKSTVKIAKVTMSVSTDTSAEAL
Briefly: Determination of affinity for cannabinoid receptor 1 (CB1) ([3H] WIN55,212-2 binding, rat cerebellum membranes). On the set-up: species or system Sprague Dawley rats. Conditions: method (c). An excerpt:
(c) Determination of Affinity for Cannabinoid Receptor 1 (CB1)
The method was developed on the basis of the publication of D'Ambra et al, J. Med. Chem. 35, 124-135 (1992), but at variance therewith the ligand stated below is used. The disclosure of this article is hereby incorporated by reference.
• Sprague Dawley rats weighing between 150-350 g • (breeder: Charles River Deutschland, 32699 Extertal, Germany) • Ligand: [^3H] WIN55, 212-2; Perkin Elmer, item. no. NET 1058 • Ligand cold: WIN 55, 212-2 mesylate; Tocris; item. no. 1038 • HEPES: Sigma, item no. H-3375 • BSA: Sigma, item no. A-2153 • GF/B filter mats (Brandel Inc., cat. no. FP 100, size 2¼″×12¼″) • Ready Protein scintillating material (item no. 586604, Beckmann, 85716 Unterschlei ? heim) • Tissue: rat cerebellum • Tissue & incubation buffer: 20 mM HEPES pH 7.0. • Filtration buffer: 20 mM HEPES pH 7.0 containing 0.5 mg of BSA/ml which prevents adsorption. • Filter mat softening buffer: 20 mM HEPES pH 7.0 containing 5 mg of BSA/ml. B. Preparation of Cerebellum:
20 ml of ice-cooled buffer are used per 1 g of brain tissue. The brain tissue is disrupted within 30 seconds in the cold buffer with ice cooling at a rotational speed of 6000 rpm using a homogeniser from Kinematica, model Polytron PT-3000 with PT-DA-3012/2 drive unit. The resultant homogenate is then diluted with cold buffer to a ratio of 100 ml/g of tissue. Centrifugation is then performed for 15 minutes at 49,000 g and 4° C. Once centrifugation is complete, the supernatants are decanted and the precipitates resuspended in fresh, cold buffer. Acceptable suspension of the pellets is obtained at only 1000 rpm in the homogeniser with ice cooling and a processing time of at most 60 seconds. This last centrifugation step is repeated twice more (in each case washed with 20 mM HEPES pH 7.0). The precipitated is then suspended with buffer in a ratio of 1:120 (weight/volume).
Incubation is performed for 90 minutes at room temperature, i.e. 25° C. The batches are then rapidly suction filtered with the assistance of the Brandel Cell Harvester (model M-24-R, Adi Hassel, 80809 Munich, Germany) through GF/B filter mats, which have previously been softened in HEPES buffer pH 7.0 containing 5 mg/ml of BSA, and rewashed with 20 ml of filtration buffer (ice-cooled). After transferring the filters into scintillation vials and adding a 10 ml portion of scintillation liquid (Ready Protein) to each and then leaving to stand for 15 hours, the samples are measured in the scintillation counter (Perkin Elmer, model Wallac 1409).

For experiment [2], the target named is T2, vanilloid receptor VR1 (capsaicin receptor) (Rattus norvegicus, UniProt O35433).
T2 construct: isolated from the spinal cord of male Sprague Dawley rats (breeder: Charles River Deutschland, 32699 Extertal) and used for preparation of the membrane; from tissue; host or cells: rat spinal cord (cervical region and one third of the thoracic region) membranes
T2 sequence (O35433 whole entry): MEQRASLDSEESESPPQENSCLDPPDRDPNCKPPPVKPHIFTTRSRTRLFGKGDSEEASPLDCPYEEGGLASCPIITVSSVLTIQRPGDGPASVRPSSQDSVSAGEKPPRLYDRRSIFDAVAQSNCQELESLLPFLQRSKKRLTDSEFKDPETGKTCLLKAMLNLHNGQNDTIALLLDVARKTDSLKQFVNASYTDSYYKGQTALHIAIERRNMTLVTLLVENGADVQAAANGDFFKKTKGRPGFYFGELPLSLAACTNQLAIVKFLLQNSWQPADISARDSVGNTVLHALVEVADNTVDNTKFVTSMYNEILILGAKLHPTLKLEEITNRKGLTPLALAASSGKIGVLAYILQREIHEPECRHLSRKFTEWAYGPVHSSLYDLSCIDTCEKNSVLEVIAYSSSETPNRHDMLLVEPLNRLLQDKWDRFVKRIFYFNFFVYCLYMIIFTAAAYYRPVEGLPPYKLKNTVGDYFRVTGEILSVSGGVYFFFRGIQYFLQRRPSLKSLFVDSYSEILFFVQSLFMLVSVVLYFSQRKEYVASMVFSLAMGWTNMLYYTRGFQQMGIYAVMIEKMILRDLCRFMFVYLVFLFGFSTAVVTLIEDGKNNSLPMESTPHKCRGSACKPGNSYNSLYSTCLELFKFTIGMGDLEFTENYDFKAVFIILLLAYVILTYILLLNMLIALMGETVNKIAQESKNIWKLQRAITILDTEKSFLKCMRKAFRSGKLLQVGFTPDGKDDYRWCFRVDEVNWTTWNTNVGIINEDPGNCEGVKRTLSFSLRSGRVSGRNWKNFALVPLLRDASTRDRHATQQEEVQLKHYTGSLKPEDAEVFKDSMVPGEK
Briefly: Determination of affinity for vanilloid receptor VR1 ([3H] resiniferatoxin binding, rat spinal cord membranes). Further details: species or system Sprague Dawley rats. Conditions: method (a); 10 μM; read-out: % VR1 binding % inhibition at 10 μM [2]. The source says: This method was developed on the basis of the publication by Acs et al., J. Neurochem. 65, 301-308 (1995). The corresponding description is hereby introduced as a reference and is deemed to be part of the disclosure.
• Sprague Dawley rats weighing between 150-300 g • (breeder: Charles River Deutschland, 32699 Extertal, Germany) • HEPES (item no. H-3375, SIGMA) • NaCl (item no. 6400.1000; Merck) • KCl (item no.: 4936.1000; Merck) • HCl (item no.: 1.00317; Merck) • [^3H] resiniferatoxin ([^3H] RTX) (item no.: NET-1132, Perkin-Elmer) • Resiniferatoxin (RTX, cold) (item no.: 550-179-M001, Alexis) • D-Glucose (item no.: 1.08337.1000, Merck) • Sucrose (item no.: S-9378, Sigma) • α1-acid glycoprotein (item no.: G-3643, Sigma) • BSA (bovine serum albumin, item no.: A-2153, Sigma) • GF/B filter mats (Brandel Inc., cat. no. FP 100, size: 2¼″×12¼″)
Buffer: (Concentration values in brackets in each case in mM)
• HEPES (10); KCl (5); NaCl (5.8); CaCl (0.75); MgCl (2.0); D-glucose (12); • sucrose (137). The pH value is adjusted at room temperature using 20% strength HCl. B. Preparation of Membranes
The cervical region and one third of the following thoracic region is isolated from the spinal cord of male Sprague Dawley rats (breeder: Charles River Deutschland, 32699 Extertal) and used for preparation of the membrane. After the combined tissue is weighed, it is homogenized in ice-cooled buffer of the above-stated composition. 20 ml of buffer were used per 1 g of tissue (1:20 weight/volume). Homogenisation performed with a homogeniser from Kinematica, model Polytron PT-3000 with PT-DA-3012/2 drive unit. The spinal cord tissue is disrupted within 60 seconds in the cold buffer with ice cooling at a rotational speed of 6000 rpm. The material is then centrifuged for 10 minutes at 1000 g and +4° C. and the resultant precipitate discarded. The […] in the same volume of buffer of the above-stated composition. The material is then centrifuged for 40 minutes at 48,000 g and +4° C. and the supernatant discarded. The resultant precipitate is resuspended in 30 ml of buffer of the above-stated composition and used in this form in the vanilloid receptor (VR1) assay.
Incubation is performed in the water bath for one hour at 37° C. The samples are then placed in an ice bath for 15 minutes. In order to minimise nonspecific adsorption of the RTX, 100 μg of α1-acid glycoprotein (in 50 μl of buffer) are added to each incubation tube. The samples are then thoroughly mixed on a vortex shaker and left to stand for 10 minutes. The batches are then filtered with the assistance of the model M-24R “Brandel Cell Harvester” through a GF/B glass fiber filter mat which has been presoftened in tris buffer. The filter is then rinsed through 3 times with 4 ml portions of ice-cold HEPES buffer of the above-stated composition for each sample. The filters are transferred into scintillation counter vessels, each is combined with a 10 ml portion of “Ready Protein” scintillating material, and the vessels are closed with screw caps. The vessels are shaken on the vortex shaker and left to stand for at least 15 hours in the fume cupboard. The samples are then measured on the β-counter (model 1409 Wallac, Perkin Elmer, 63110 Rogau-Jügesheim, Germany).

For experiment [3], the target named is T3, vanilloid receptor (VR1) (Rattus norvegicus, UniProt O35433).
T3 construct: expressed in transfected cells; host or cells: CHO K1 cells (ECACC)
T3 sequence (O35433 whole entry): as above
Briefly: Functional investigations on vanilloid receptor (VR1): Ca2+ influx FLIPR assay in CHO K1 cells stably transfected with the VR1 gene. It counts as cell-based, rats. The following applies: for inhibition at 10 µM: CHO-K1, read-out: % Inhibition [1]; for % Activation [1]: method (b), substance 10 μM, relative to Ca2+ signal after 10 μM capsaicin, means from 4–5 measurements. The source says:
(b) Functional Investigations on Vanilloid Receptor (VR1)
The agonistic or antagonistic action of the substances to be investigated on the vanilloid receptor (VR1) may be determined with the following assay. According to this assay, the influx of Ca^2+ through the channel is quantified with the assistance of a Ca^2+-sensitive dye (type Fluo4, Molecular Probes Europe BV, Leiden, Netherlands) in a Fluorescent Imaging Plate Reader (FLIPR, Molecular Devices, Sunnyvale, USA).
Chinese hamster ovary cells (CHO K1 cells, European Collection of Cell Cultures (ECACC), Great Britain) are stably transfected with the VR1 gene. For functional investigations, these cells are plated out onto poly-D-lysine-coated, black 96 well plates with a clear bottom (BD Biosciences, Heidelberg, Germany) at a density of 25,000 cells/well. The cells are incubated overnight at 37° C. and 5% CO2 in a culture medium (Ham's Nutrient Mixture F12, 10 vol. % FCS (foetal calf serum), 18 μg/mL L-proline). On the following day, the cells are incubated with Fluo4 (Fluo4 2 μM, Pluronic F127 0.01 vol. %, Molecular Probes in HBSS (Hank's buffered saline solution), Gibco Invitrogen GmbH, Karlsruhe, Germany) for 30 minutes at 37° C. The plates are then washed 3 times with HBSS buffer and, after a further 15 minutes' incubation at room temperature, used for Ca^2+ measurement in the FLIPR. Ca^2+-dependent fluorescence is here measured before and after addition of the substances to be investigated (wavelength λex=488 nm, λem=540 nm). Quantification proceeds by measuring the highest fluorescence intensity (FC, fluorescence counts) over time.
The FLIPR protocol comprises 2 additions of substance. […] The percentage inhibition in comparison with the maximum achievable inhibition with 10 μM capsazepine is calculated.

Consider `Cc1cc(C)n2c(NC(C)(C)CC(C)(C)C)c(-c3ccsc3)nc2c1` [Example 1, (5,7-Dimethyl-2-thiophen-3-yl-imidazo[1,2-a]pyridin-3-yl)-(1,1,3,3-tetramethylbutyl)-amine hydrochloride], for which the inhibition (as a rule, the percentage by which the read-out fell short of the control) at 10 µM is 43% in experiment [1] and 42.5% in experiment [2].

Take `CC(C)(C)CC(C)(C)Nc1c(-c2ccsc2)nc2ccccn12` [Example 2, (1,1,3,3-Tetramethylbutyl)-(2-thiophen-3-yl-imidazo-[1,2-a]pyridin-3-yl)amine hydrochloride]: the inhibition at 10 µM in experiment [3] was 32.2%; in experiment [1], 47%; in experiment [2] it was 36%.

Take `Cc1ccn2c(NC(C)(C)CC(C)(C)C)c(-c3ccoc3)nc2c1.Cl` [Example 5, (2-Furan-3-yl-7-methyl-imidazo[1,2-a]pyridin-3-yl)-(1,1,3,3-tetramethylbutyl)amine hydrochloride]: in experiment [3], the inhibition at 10 µM amounted to 80.7% and the “% Activation [1]” value was 32.4%. Also, at 10 µM the inhibition in experiment [1] was 32.7%.

As to `Cc1ccn2c(NC(C)(C)CC(C)(C)C)c(-c3ccsc3)nc2c1.Cl` [Example 3, (7-Methyl-2-thiophene-3-yl-imidazo[1,2-a]pyridin-3-yl)-(1,1,3,3-tetramethylbutyl)-amine hydrochloride], in experiment [3], the inhibition at 10 µM was determined as 65% and the “% Activation [1]” value was determined as 30.1%. In experiment [1], this compound returned an inhibition at 10 µM of 35.5%.

As for `CC(C)(C)CC(C)(C)Nc1c(-c2ccoc2)nc2ccccn12` [Example 4, (2-Furan-3-yl-imidazo[1,2-a]pyridin-3-yl)-(1,1,3,3-tetramethylbutyl)amine hydrochloride], the inhibition at 10 µM was 44.1% in experiment [3] and 35% in experiment [1].
